Data on 16 compounds can be found in article PMC5513444, “The synthesis and evaluation of triazolopyrimidines as anti-tubercular agents” (Bioorganic & Medicinal Chemistry, 2017).

The test system of series [1] is M. tuberculosis H37Rv. In words: MIC90 against M. tuberculosis in liquid medium. In kind it is cell-based, Mycobacterium tuberculosis. As to conditions: liquid medium 7H9-Tw-OADC, aerobic, 5 days, average ± SD of two independent experiments, read-out: MIC (MIC90, minimum concentration required to inhibit growth of M. tuberculosis by 90%).
In series [2] the test system is Mycobacterium smegmatis mc^2155. In words: MIC99 on solid medium, M. smegmatis. As to conditions: Mycolicibacterium smegmatis, 3–4 days. The class given is cell-based.
The test system of series [3] is Bacillus subtilis Marburg. The experiment in a line: MIC99 on solid medium, B. subtilis. In kind it is cell-based. As to conditions: nutrient agar, 28 °C, 3–4 days.
In series [4] the test system is M. tuberculosis H37Rv. The experiment in a line: MIC99 on solid medium, M. tuberculosis. In kind it is cell-based, Mycobacterium tuberculosis. As to conditions: solid medium 7H10-OADC, 4 weeks, lowest concentration yielding less than 1% growth.
Series [5] concerns Escherichia coli DH5α. In words: MIC99 on solid medium, E. coli. As to conditions: 24 h, LB agar, 1 day. The class given is cell-based.
The subject of series [6] is M. tuberculosis. In words: Kill kinetics against M. tuberculosis in liquid culture. In kind it is cell-based, Mycobacterium tuberculosis. Conditions: for Kill of non-replicating M. tuberculosis: non-replicating bacteria (starvation conditions, PBS-Ty), over 14–21 days; for Activity against replicating M. tuberculosis (kill kinetics): replicating bacteria in 7H9-Tw-OADC, over 21 days.

The test system of series [7] is Pseudomonas aeruginosa HER1018 (PAO1). In words: MIC99 on solid medium, P. aeruginosa. The class given is cell-based. Conditions: PAO1, 24 h, tryptic soy agar, 1 day.
The subject of series [8] is HepG2 cells. In words: Cytotoxicity against HepG2 cell line (CellTiter-Glo). The class given is cell-based. Conditions: for Selectivity index (SI) = IC50/MIC90: HepG2 IC50 / M. tuberculosis MIC90; for IC50: Homo sapiens, 48 h, HepG2, 2 days incubation, read-out: IC50 (concentration required to reduce the viability of HepG2 cells by 50%). For orientation: In ATP-based viability assays light output follows the ATP content of the culture.

Series [9] concerns Saccharomyces cerevisiae Y187. In words: MIC99 on solid medium, S. cerevisiae. As to conditions: YPD agar, 3–4 days.
The nature of series [10]: Turnover by human liver microsomes. In kind it is in vitro ADME. As to the method:
(§1) Based on in silico ADME predictions, three compounds were chosen to cover a range of cLogP values and were evaluated for their in vitro microsomal stability (Table 7). Rapid metabolism of compound 44 was observed, in rodent and human liver microsomes. The para-OCF3 analog 48 was also rapidly metabolized. The amide (49) had improved in vitro microsomal stability, with only 12% loss after 30 min in mouse microsomes, 22% loss in rat microsomes and 31% loss in human microsomes. The difference in stability for these three compounds is probably due to presence of more than one oxidatively-labile carbon in 44 and 48 (both have a two carbon linker), while 49 has only one such soft spot, although these have not been confirmed with metabolite identification studies.

Series [11] is described as follows: Turnover by mouse liver microsomes. The class given is in vitro ADME. The procedure: as §1
In general terms: Microsomes from liver hold many membrane-bound enzymes, among them those of drug oxidation.

The nature of series [12]: Turnover by rat liver microsomes. In kind it is in vitro ADME. The procedure: as §1
Series [13] in a line: In vivo mouse PK after oral and intravenous administration. Conditions: male mice, oral 10 mg/kg. As to the method: The oral exposure of the three compounds was evaluated in male mice by comparing exposures following oral (PO) and intravenous (IV) administration of 10 and 1 mg/kg doses of compounds, respectively (Table 7).
Series [14] in a line: Fraction unbound in mouse plasma. Conditions: read-out: Mouse Fu,pl (fraction unbound in plasma). The class given is in vitro ADME. The source says: Table 7 In vitro ADME and in vivo PK. | column: Mouse Fu,pl ^a
The mark [15] stands for this setting: Mycobacterium tuberculosis, H37RV, 120 h.
Setting [16] is: Mycobacterium tuberculosis, H37RV, 672 h.

Each structure is given as a SMILES string. In brackets after ≈: the same amount, converted by molar mass. Several values for one entry are separate records, joined by “and”; a condition that tells them apart may be missing. Identical values can stand only once. Like-named read-outs stand apart in the source and are kept apart here.

For the compound `COc1ccc(CCNc2cc(-c3ccccn3)nc3ncnn23)cc1` [Compound 16, N-(4-Methoxyphenethyl)-5-(pyridin-2-yl)-[1,2,4]triazolo[1,5-a]pyrimidin-7-amine], the melting point lay within 172 to 173 °C. Also, the MIC90 in [1] (setting [15]) came to 0.83 ± 0.26 µM (≈ 0.288 µg/mL). Besides, the MIC99 in series [2] was more than 100 µM. In series [3], the MIC99 was more than 100 µM. This compound also yielded an MIC99 in series [4] (setting [16]) of 13 µM (≈ 4.5 µg/mL). The compound further returned an MIC99 in [4] of less than 20 µM. Moreover, in [5], the MIC99 was more than 100 µM. Also, in [6], the “Kill of non-replicating M. tuberculosis” value is 2–3 log and the “Activity against replicating M. tuberculosis (kill kinetics)” value is on record as “static activity”. Besides, the MIC99 in series [7] was more than 100 µM. Also, in series [8], the “Selectivity index (SI) = IC50/MIC90” value was more than 130 and the IC50 is more than 100 µM. In addition, the “MIC99 S. cerevisiae” value in series [9] is more than 100 µM.
Consider `Cc1ccc(CCNc2cc(-c3ccccc3)nc3ncnn23)cc1` [Compound 44, N-(4-Methylphenethyl)-5-phenyl-[1,2,4]triazolo[1,5-a]pyrimidin-7-amine], for which the MIC90 in series [1] (setting [15]) came to 1.4 ± 0.5 µM (≈ 0.461 µg/mL). Further, the “% turnover by liver microsomes in 30 min, Human” value in series [10] was found to be 68.1%. Moreover, in [11], the “% turnover by liver microsomes in 30 min, Mouse” value was found to be 98.2%. In [12], the “% turnover by liver microsomes in 30 min, Rat” value was found to be 99.2%. In [8], the “Selectivity index (SI) = IC50/MIC90” value is 43 and the IC50 amounted to 53 µM. In series [13], the highest level (Cmax) was 604 nM, the “PO Tmax” value turned out to be 15 min and the “PO t1/2” value is recorded as 1.05 h. In addition, in series [14], the unbound share (fraction unbound) worked out at 0.015.
`COc1ccc(CC(=O)Nc2cc(-c3ccccc3)nc3ncnn23)cc1` [Compound 49, 2-(4-Methoxyphenyl)-N-(5-phenyl-[1,2,4]triazolo[1,5-a]pyrimidin-7-yl)acetamide]: the MIC90 in series [1] (setting [15]) is 1.5 ± 0.7 µM (≈ 0.539 µg/mL). Besides, the MIC99 in [2] is more than 10 µM; in series [3], more than 10 µM; in series [4] (setting [16]), 3.1 µM (≈ 1.11 µg/mL); in [4], less than 20 µM; in [5], more than 10 µM; in series [7], more than 10 µM. Moreover, the “Kill of non-replicating M. tuberculosis” value in [6] is listed as 2–3 log. Further, the “Activity against replicating M. tuberculosis (kill kinetics)” value in series [6] is listed as “static activity”. The “% turnover by liver microsomes in 30 min, Human” value in [10] was 31% and 30.6%. In addition, the “% turnover by liver microsomes in 30 min, Mouse” value in series [11] is 12% and 12.5%. Moreover, in [12], the “% turnover by liver microsomes in 30 min, Rat” value is 22% and 21.8%. For the same compound, the “Selectivity index (SI) = IC50/MIC90” value in [8] is more than 73. Further, the IC50 in series [8] was more than 100 µM. This compound had a Cmax in [13] of 62.8 nM. For the same compound, in series [13], the “PO AUC” value amounted to 187 nM·h. Besides, the “PO Tmax” value in [13] was determined as 90 min. The “MIC99 S. cerevisiae” value in [9] is more than 10 µM.
In turn, `c1ccc(CCNc2cc(-c3ccccn3)nc3ncnn23)nc1` [Compound 52, 5-(Pyridin-2-yl)-N-(2-(pyridin-2-yl)ethyl)-[1,2,4]triazolo[1,5-a]pyrimidin-7-amine] came in with a melting point of 156 to 157 °C. The MIC90 in series [1] (setting [15]) is more than 20 µM. In addition, in series [8], the IC50 is more than 100 µM.
Compound `c1ccc(-c2cc(NCCc3cccnc3)n3ncnc3n2)nc1` [Compound 53, 5-(Pyridin-2-yl)-N-(2-(pyridin-3-yl)ethyl)-[1,2,4]triazolo[1,5-a]pyrimidin-7-amine] had a melting point of 212 to 213 °C. The MIC90 in series [1] (setting [15]) is more than 20 µM. Besides, the IC50 in series [8] was more than 100 µM.
Compound `c1ccc(-c2cc(NCCc3ccncc3)n3ncnc3n2)nc1` [Compound 54, 5-(Pyridin-2-yl)-N-(2-(pyridin-4-yl)ethyl)-[1,2,4]triazolo[1,5-a]pyrimidin-7-amine] registered a melting point of 201 to 202 °C. In addition, the MIC90 in [1] (setting [15]) was more than 20 µM. The IC50 in series [8] is more than 100 µM.
The compound `Cc1ccc(CCNc2cc(-c3ccccn3)nc3ncnn23)cc1` [Compound 55, N-(4-Methylphenethyl)-5-(pyridin-2-yl)-[1,2,4]triazolo[1,5-a]pyrimidin-7-amine] had a melting point of 194 to 196 °C. For the same compound, in series [1] (setting [15]), the MIC90 came to 0.52 ± 0.1 µM (≈ 0.172 µg/mL). For the same compound, in [8], the “Selectivity index (SI) = IC50/MIC90” value was more than 196 and the IC50 was more than 100 µM.
Turning to `CCc1ccc(CCNc2cc(-c3ccccn3)nc3ncnn23)cc1` [Compound 56, N-(4-Ethylphenethyl)-5-(pyridin-2-yl)-[1,2,4]triazolo[1,5-a]pyrimidin-7-amine], the melting point lay within 154 to 155 °C. Also, the MIC90 in series [1] (setting [15]) worked out at 0.2 ± 0.02 µM (≈ 0.0689 µg/mL). Moreover, in [8], the “Selectivity index (SI) = IC50/MIC90” value came out at 220 and the IC50 turned out to be 44 µM.
In the same order, the values of `Fc1ccc(CCNc2cc(-c3ccccn3)nc3ncnn23)cc1` [Compound 57, N-(4-Fluorophenethyl)-5-(pyridin-2-yl)-[1,2,4]triazolo[1,5-a]pyrimidin-7-amine] are 190 to 192 °C, 4.8 ± 1.3 µM (≈ 1.6 µg/mL), 17 and 81 µM.
In the same order, the values of `FC(F)(F)Oc1ccc(CCNc2cc(-c3ccccn3)nc3ncnn23)cc1` [Compound 59, 5-(Pyridin-2-yl)-N-(4-(trifluoromethoxy)phenethyl)-[1,2,4]triazolo[1,5-a]pyrimidin-7-amine] are 163 to 165 °C, 1.6 ± 1.1 µM (≈ 0.641 µg/mL), more than 72 and more than 100 µM.
In turn, `COc1ccc(CCN(C)c2cc(-c3ccccc3)nc3ncnn23)cc1` [Compound 61, N-(4-Methoxyphenethyl)-N-methyl-5-phenyl-[1,2,4]triazolo[1,5-a]pyrimidin-7-amine] showed a melting point of 170 to 171 °C. Moreover, in [1] (setting [15]), the MIC90 is more than 20 µM. Moreover, the IC50 in series [8] worked out at 17 µM.
The compound `COc1ccc(C2CCN(c3cc(-c4ccccn4)nc4ncnn34)C2)cc1` (stereo not shown) [Compound 62, 7-(3-(4-Methoxyphenyl)pyrrolidin-1-yl)-5-(pyridin-2-yl)-[1,2,4]triazolo[1,5-a]pyrimidine] had a melting point of 222 to 223 °C. For the same compound, the MIC90 in [1] (setting [15]) is more than 20 µM. Besides, the IC50 in series [8] stood at 23 µM.
In turn, `COc1ccc(CCNc2cc(-c3ccccn3)nc3nc(C)nn23)cc1` [Compound 67, N-(4-Methoxyphenethyl)-2-methyl-5-(pyridin-2-yl)-[1,2,4]triazolo[1,5-a]pyrimidin-7-amine] displayed a melting point of 139 to 141 °C. In addition, the MIC90 in [1] (setting [15]) amounted to 3.9 ± 0.21 µM (≈ 1.41 µg/mL). In addition, in series [8], the “Selectivity index (SI) = IC50/MIC90” value was more than 26 and the IC50 is more than 100 µM.
In turn, `COc1ccc(CCNc2cc(-c3ccccn3)nc3nc(-c4ccccc4)nn23)cc1` [Compound 68, N-(4-Methoxyphenethyl)-2-phenyl-5-(pyridin-2-yl)-[1,2,4]triazolo[1,5-a]pyrimidin-7-amine] came in with a melting point of 146 to 148 °C. Moreover, the MIC90 in [1] (setting [15]) is more than 20 µM. Besides, the MIC90 in series [1] is given as more than 20 µM. Further, the IC50 in series [8] was more than 100 µM.
In the case of `COc1ccc(CCNc2cc(-c3ccccn3)nc3ccnn23)cc1` [Compound 69, N-(4-Methoxyphenethyl)-5-(pyridin-2-yl)pyrazolo[1,5-a]pyrimidin-7-amine], the melting point was in the range of 116 to 117 °C. The MIC90 in [1] (setting [15]) is 2.5 ± 0.15 µM (≈ 0.864 µg/mL). In series [8], the “Selectivity index (SI) = IC50/MIC90” value came to 9 and the IC50 was determined as 23 µM.
In the same order, the values of `COc1ccc(CCNc2cc(-c3ccccn3)nc3nccn23)cc1` [Compound 70, N-(4-Methoxyphenethyl)-7-(pyridin-2-yl)imidazo[1,2-a]pyrimidin-5-amine] are 234 to 235 °C, 0.22 ± 0.07 µM (≈ 0.076 µg/mL), 142 and 30 µM.

Usually MIC99 stands for an inhibitory concentration at the 99% level, which refers to growth in some studies and to a panel of isolates in others. A lower MIC99 goes with higher susceptibility. The term melting point denotes the temperature of the solid-liquid transition. Usually Cmax stands for the peak of the concentration-time curve. The fraction unbound is the share of the substance not bound to proteins or other matrix.
